Results as given in ChEMBL document CHEMBL1201862, “PubChem BioAssay data set” (2004).
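Protocol summary: plate cells (96-well), add compound at 5 concentrations, incubate 48 h, interpolate endpoints linearly. At the GI50, growth is halved.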 Active and inactive are the calls of the source. No stated cut-off is given here; in the data, active = GI50 up to about 1.1 µM and inactive = higher.

Tests used:
Test in all cases: NCI-60 cell line screen, 48 h
786-0 = tested on: 786-0
A498 = tested on: A498
A549 = tested on: A549
ACHN = tested on: ACHN
BT-549 = tested on: BT-549
CAKI-1 = tested on: CAKI-1
CCRF-CEM = tested on: CCRF-CEM
COLO 205 = tested on: COLO 205
DU-145 = tested on: DU-145
EKVX = tested on: EKVX
HCC 2998 = tested on: HCC 2998
HCT-116 = tested on: HCT-116
HCT-15 = tested on: HCT-15
HL-60 = tested on: HL-60
HOP-62 = tested on: HOP-62
HOP-92 = tested on: HOP-92
HT-29 = tested on: HT-29
Hs-578T = tested on: Hs-578T
IGROV-1 = tested on: IGROV-1
K562 = tested on: K562
KM12 = tested on: KM12
LOX IMVI = tested on: LOX IMVI
M14 = tested on: M14
MCF7 = tested on: MCF7
MDA-MB-231 = tested on: MDA-MB-231
MDA-MB-435 = tested on: MDA-MB-435
MOLT-4 = tested on: MOLT-4
Malme-3M = tested on: Malme-3M
NCI-H226 = tested on: NCI-H226
NCI-H23 = tested on: NCI-H23
NCI-H460 = tested on: NCI-H460
NCI-H522 = tested on: NCI-H522
NCI/ADR-RES = tested on: NCI/ADR-RES
OVCAR-3 = tested on: OVCAR-3
OVCAR-4 = tested on: OVCAR-4
OVCAR-5 = tested on: OVCAR-5
OVCAR-8 = tested on: OVCAR-8
PC-3 = tested on: PC-3
RPMI-8226 = tested on: RPMI-8226
RXF 393 = tested on: RXF 393
SF-268 = tested on: SF-268
SF-295 = tested on: SF-295
SF-539 = tested on: SF-539
SK-MEL-28 = tested on: SK-MEL-28
SK-MEL-2 = tested on: SK-MEL-2
SK-MEL-5 = tested on: SK-MEL-5
SN12C = tested on: SN12C
SNB-19 = tested on: SNB-19
SNB-75 = tested on: SNB-75
SR = tested on: SR
SW-620 = tested on: SW-620
T47D = tested on: T47D
TK-10 = tested on: TK-10
U-251 = tested on: U-251
UACC-257 = tested on: UACC-257
UACC-62 = tested on: UACC-62
UO-31 = tested on: UO-31
SK-OV-3 = tested on: SK-OV-3

In the case of `CCNc1ccc2c(c1)Cc1ccccc1-2`, the GI50 (786-0) is reported as > 100 µM (inactive), the GI50 (A498) is reported as 43.3 µM (inactive) and the GI50 (A549) is reported as 73.5 µM (inactive). For the same compound, the GI50 (ACHN) was 77.4 µM (inactive), the GI50 (BT-549) was 34.5 µM (inactive) and the GI50 (CAKI-1) was 27.2 µM (inactive). For the same compound, the GI50 (CCRF-CEM) was > 100 µM (inactive), the GI50 (COLO 205) was 64.9 µM (inactive) and the GI50 (DU-145) was 59.8 µM (inactive). The GI50 (EKVX) was 32.4 µM (inactive), the GI50 (HCC 2998) was 9.71 µM (inactive) and the GI50 (HCT-116) was > 100 µM (inactive). The GI50 (HCT-15) was 7.38 µM, the GI50 (HL-60) was 37.3 µM (inactive) and the GI50 (HOP-62) was > 100 µM (inactive). The GI50 (HOP-92) was 21.2 µM (inactive), the GI50 (HT-29) was 50.5 µM (inactive) and the GI50 (Hs-578T) was 65.2 µM (inactive). For the same compound, the GI50 (IGROV-1) was 37 µM (inactive), the GI50 (K562) was 27.6 µM (inactive) and the GI50 (KM12) was 26.1 µM (inactive). The GI50 (LOX IMVI) was 32.3 µM (inactive), the GI50 (M14) was 66.5 µM (inactive) and the GI50 (MCF7) was 23.7 µM (inactive). For the same compound, the GI50 (MDA-MB-231) was 64.1 µM (inactive), the GI50 (MDA-MB-435) was 49.5 µM (inactive) and the GI50 (MOLT-4) was 12.9 µM (inactive). For the same compound, the GI50 (Malme-3M) was 67.9 µM (inactive), the GI50 (NCI-H226) was 54.7 µM (inactive) and the GI50 (NCI-H23) was 14.3 µM (inactive). The GI50 (NCI-H460) was 18 µM (inactive), the GI50 (NCI-H522) was 32.7 µM (inactive) and the GI50 (NCI/ADR-RES) was > 100 µM (inactive). The GI50 (OVCAR-3) was 29 µM (inactive), the GI50 (OVCAR-4) was 75.3 µM (inactive) and the GI50 (OVCAR-5) was > 100 µM (inactive). For the same compound, the GI50 (OVCAR-8) was 51.5 µM (inactive), the GI50 (PC-3) was 35.4 µM (inactive) and the GI50 (RPMI-8226) was 47.3 µM (inactive). For the same compound, the GI50 (RXF 393) was > 100 µM (inactive), the GI50 (SF-268) was 46.2 µM (inactive) and the GI50 (SF-295) was 47.6 µM (inactive). For the same compound, the GI50 (SF-539) was 43.8 µM (inactive), the GI50 (SK-MEL-28) was > 100 µM (inactive) and the GI50 (SK-MEL-2) was 56.1 µM (inactive). The GI50 (SK-MEL-5) was 25.8 µM (inactive), the GI50 (SN12C) was 64 µM (inactive) and the GI50 (SNB-19) was 48.1 µM (inactive). For the same compound, the GI50 (SNB-75) was > 100 µM (inactive), the GI50 (SR) was 14.5 µM (inactive) and the GI50 (SW-620) was 83.6 µM (inactive). The GI50 (T47D) was > 100 µM (inactive), the GI50 (TK-10) was 33.1 µM (inactive) and the GI50 (U-251) was 44.3 µM (inactive). For the same compound, the GI50 (UACC-257) was 49.7 µM (inactive), the GI50 (UACC-62) was 40.7 µM (inactive) and the GI50 (UO-31) was 52.4 µM (inactive).

`O=C1C=CC(O)C2C1CC13SSC4(CC5C(=O)C=CC(O)C5N4C1=O)C(=O)N23` (centres undefined) was tested, and the GI50 (786-0) was 0.0396 µM (active), the GI50 (A498) was 3.2 µM (inactive) and the GI50 (A549) was 2.52 µM (inactive). The GI50 (ACHN) was 0.0745 µM (active), the GI50 (BT-549) was 1.63 µM (inactive) and the GI50 (CAKI-1) was 0.155 µM (active). For the same compound, the GI50 (CCRF-CEM) was < 0.01 µM (active), the GI50 (COLO 205) was 0.155 µM (active) and the GI50 (DU-145) was 0.354 µM (active). For the same compound, the GI50 (EKVX) was 0.726 µM (active), the GI50 (HCT-116) was < 0.0151 µM (active) and the GI50 (HCT-15) was 0.14 µM. For the same compound, the GI50 (HL-60) was < 0.0465 µM (active), the GI50 (HOP-62) was 0.324 µM (active) and the GI50 (HOP-92) was 0.0966 µM (active). The GI50 (HT-29) was 0.0426 µM (active), the GI50 (Hs-578T) was 0.5 µM (active) and the GI50 (IGROV-1) was 1.37 µM (inactive). For the same compound, the GI50 (K562) was 0.0358 µM (active), the GI50 (KM12) was 0.0885 µM (active) and the GI50 (LOX IMVI) was 0.0579 µM (active). For the same compound, the GI50 (M14) was 0.157 µM (active), the GI50 (MCF7) was 1.21 µM (inactive) and the GI50 (MDA-MB-231) was 0.281 µM (active). For the same compound, the GI50 (MDA-MB-435) was 0.164 µM (active), the GI50 (MOLT-4) was 0.0109 µM (active) and the GI50 (Malme-3M) was 0.33 µM (active). For the same compound, the GI50 (NCI-H226) was 0.308 µM (active), the GI50 (NCI-H23) was 0.106 µM (active) and the GI50 (NCI-H460) was 0.681 µM (active). The GI50 (NCI-H522) was 0.0453 µM (active), the GI50 (NCI/ADR-RES) was 0.0545 µM (active) and the GI50 (OVCAR-3) was 0.0845 µM (active). The GI50 (OVCAR-4) was 0.476 µM (active), the GI50 (OVCAR-5) was 0.0634 µM (active) and the GI50 (OVCAR-8) was 0.0698 µM (active). For the same compound, the GI50 (PC-3) was 0.138 µM (active), the GI50 (RPMI-8226) was < 0.01 µM (active) and the GI50 (RXF 393) was 0.483 µM (active). For the same compound, the GI50 (SF-268) was 0.847 µM (active), the GI50 (SF-295) was 1.09 µM (active) and the GI50 (SF-539) was 0.151 µM (active). The GI50 (SK-MEL-28) was 0.302 µM (active), the GI50 (SK-MEL-2) was 0.796 µM (active) and the GI50 (SK-MEL-5) was 0.412 µM (active). For the same compound, the GI50 (SK-OV-3) was 2.2 µM (inactive), the GI50 (SN12C) was 0.0601 µM (active) and the GI50 (SNB-19) was 1.36 µM (inactive). The GI50 (SNB-75) was 1.11 µM (active), the GI50 (SR) was < 0.01 µM (active) and the GI50 (SW-620) was 0.0324 µM (active). The GI50 (T47D) was 0.499 µM (active), the GI50 (TK-10) was 0.485 µM (active) and the GI50 (U-251) was 0.234 µM (active). For the same compound, the GI50 (UACC-257) was 0.183 µM (active), the GI50 (UACC-62) was 0.208 µM (active) and the GI50 (UO-31) was 0.272 µM (active).
